Data: publication PMC10447463, “Data-mining unveils structure–property–activity correlation of viral infectivity enhancing self-assembling peptides” (Nature Communications, 2023)
Read-outs that look alike come from different tables or passages of the source.

Columns and labels:
[1] = Zeta-potential measurement; format: physicochemical; conditions: for Zeta-pot. / mV: zeta potential of peptide, Fig S15 source data
In short: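 Peptides from a 10 mg/mL DMSO stock were brought to 1 mg/mL in PBS (pH 7.4) and aged 1 d at RT. Just before reading, they were diluted into 1 mM aqueous KCl, and zeta potential was calculated from electrophoretic mobility with the Smoluchowski formula.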

[2] = system: HIV-1 infection of TZM-bl cells; assay: HIV-1 infectivity enhancement assay, β-galactosidase luminescence; format: cell-based; conditions: for Log10 Inf. rel. to EF-C: log10 of HIV-1 infection of TZM-bl cells relative to EF-C, Fig S15 source data, asymmetric std dev errors
[3] = Turbidity, derived count rate of scattered light; format: physicochemical; conditions: for Log Count Rate: log of derived count rate
In short: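 Samples: 1 mg/mL in PBS pH 7.4 (from DMSO), 1 d at RT, then diluted in 1 mM KCl immediately before measurement. Triplicates, two independent runs averaged.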

[4] = Feb2021, Log10 of infectivity relative to EF-C
[5] = Feb2021, figures match the 1.3 µM column
[6] = Feb2021, infectivity relative to virus only
[7] = Feb2021, n-fold enhancement relative to EF-C
[8] = Feb2021, n-fold infectivity relative to EF-C
[9] = infectivity class (low / medium / high) of each library peptide, main list in c1-c6, same classes repeated in sub-lists of sequences containing the hydrophobicity/charge patterns P+,H0,P+,H0,P0,H0,P0, P+,H0,P0,H0,P0,H0,P0, P+,H0,P0,H0
[10] = infectivity class (low / medium / high) of the peptide in the sequence-pattern analysis, Fig. S22-A4, class limits not given
[11] = category 1 or 0 from count rate, key not given
[12] = derived count rate of scattered light
[13] = derived count rate of scattered light, mean, std deviation in next column
[14] = Feb2021 run, infectivity n-fold relative to virus alone
[15] = Feb2021 run, log10 of infectivity relative to EF-C
[16] = Feb2021 run, n-fold infectivity relative to EF-C
[17] = derived count rate of scattered light, mean, std deviation in separate column
[18] = Feb2021, 1.3 µM value relative to virus only (0 µM)
[19] = Feb2021, unrounded values of the 1.3 µM column

| Substance | Zeta Pot. / mV [1] | Zeta category ( +1 = if > 4 mV;-1 = if < -4 mV; 0 = -4mV to 4 mV) [1] | Zeta category ( +1 = if > 4 mV;-1 = if < -4 mV; 0 = -4mV to 4 mV) ([1]; category from zeta potential) | Zeta Pot. / mV ([1]; mean, Std Zeta in next column) | Zeta-pot. / mV [1] | Log10 of Rel to EFC (Feb2021) [2, 4] | Absolute Infectivity / RLU /s (Feb2021) [2, 5] | n-fold to virus (Feb2021) [2, 6] | Rel-to EFC (Feb-2021) [2, 7] | Rel-to EFC (Feb-2021) [2, 8] | infectivity [2, 9] | Log10 Inf. rel. to EF-C [2] | Zeta Count Rate Category ([3]; category 1 / 0, no key given) | Zeta Count Rate Category [3, 11] | Zeta Count Rate / kcps [3, 13] | Zeta Pot. / mV ([1]; mean, Std in separate column) | n-fold to virus (Feb2021) [2, 14] | Log10 of Rel to EFC (Feb2021) [2, 15] | Rel-to EFC (Feb-2021) [2, 16] | Zeta Count Rate / kcps [3, 17] | also measured |
| --- | --- | --- | --- | --- | --- | --- | --- | --- | --- | --- | --- | --- | --- | --- | --- | --- | --- | --- | --- | --- | --- |
| KAKAKAQA [TG15] | -9.01 mV | -1 (-1 = if < -4 mV) | -1 (-1 = if < -4 mV) | -9.01 mV | -9.01 mV | -2.06 | 186.7 RLU /s | 0.366 | 0.008711 | 0.008711 | low | -2.06 | 0 | 0 | 76.93 kcps | – | – | – | – | – | infectivity [2, 10]: low; Zeta Count Rate / kcps [3, 12]: 76.93 kcps |
| CKIKQII [MG4a] | -3.83 mV | 0 (0 = -4mV to 4 mV) | 0 (0 = -4mV to 4 mV) | -3.83 mV | -3.83 mV | -1.379 | 796.7 RLU /s | 1.757 | 0.04182 | 0.04182 | – | -1.379 | 0 | 0 | 74.6 kcps | -3.83 mV | 1.757 | -1.379 | 0.04182 | 74.6 kcps | Rel-to EFC ([2]; Fig S8 panels B, D, infectivity enhancement relative to EF-C): 0.04182; n-fold to virus ([2]; Fig S8 panels B, D, infectivity n-fold relative to virus alone): 1.757; infectivity [2, 10]: low; Rel-to EFC (Feb-2021) ([2]; infectivity enhancement relative to EF-C (=1), Feb2021 run): 0.04182; n-fold to virus (Feb2021) ([2]; infectivity n-fold relative to virus only, Feb2021 run): 1.757; Log10 of Rel to EFC (Feb2021) ([2]; log10 of infectivity relative to EF-C, Feb2021 run): -1.379; Log Count Rate ([3]; Fig S8 panels A, C, asymmetric log errors): 1.873; Log Count Rate ([3]; Fig S8 panels B, D): 1.873; Count Rate ([3]; Fig S8 panels B, D, turbidity, derived count rate of scattered light): 74.6; Zeta Count Rate / kcps ([3]; derived count rate from zeta measurement, mean): 74.6 kcps; Zeta Count Rate / kcps [3, 12]: 74.6 kcps; Zeta Count Rate Category ([3]; key not given): 0 |
| RGDKIKIQI [MG14] | – | 0 (0 = -4mV to 4 mV) | 0 (0 = -4mV to 4 mV) | -0.899 mV | -0.899 mV | -1.805 | – | – | 0.01566 | – | low | -1.805 | – | 1 | 298.1 kcps | -0.899 mV | 0.6579 | -1.805 | 0.01566 | 298.1 kcps | – |
| CEFEFQFNMWQ [TM140] | – | -1 (-1 = if < -4 mV) | – | -34.23 mV | -34.23 mV | -0.8509 | – | – | – | 0.141 | medium | -0.8509 | – | – | 186.3 kcps | – | – | – | – | – | Zeta category ( +1 = if > 4 mV;-1 = if < -4 mV; 0 = -4mV to 4 mV) ([1]; category derived from the zeta potential): -1 (-1 = if < -4 mV); n-fold to virus (Feb2021) [2, 18]: 5.923; Rel-to EFC (Feb-2021) ([2]; Feb2021, infectivity enhancement relative to EF-C): 0.141; Absolute Infectivity / RLU /s (Feb2021) [2, 19]: 2517 RLU /s; Zeta Count Rate Category ([3]; category 1/0, no key printed): 1; Zeta Count Rate Category ([3]; category 1 or 0 derived from the count rate, key not given): 1 |
| KFKFQF [JJA6] | – | -1 (-1 = if < -4 mV) | -1 (-1 = if < -4 mV) | -11.03 mV | -11.03 mV | -1.213 | – | – | 0.06128 | 0.06128 | low | -1.213 | – | 1 | 183.4 kcps | -11.03 mV | 2.575 | -1.213 | 0.06128 | 183.4 kcps | n-fold to virus (Feb2021) [2, 18]: 2.575; Absolute Infectivity / RLU /s (Feb2021) [2, 19]: 686.7 RLU /s; Zeta Count Rate Category ([3]; category 1/0, no key printed): 1 |
| RGDCKFKFQF [TM64/ CN15] | 13.87 mV | 1 (+1 = if > 4 mV) | 1 (+1 = if > 4 mV) | 13.87 mV | 13.87 mV | -0.8186 | 4637 RLU /s | 6.381 | 0.1519 | 0.1519 | medium | -0.8186 | 1 | 1 | 1338 kcps | – | – | – | – | – | Zeta Count Rate / kcps [3, 12]: 1338 kcps |
| RGDCKIKIQINM [TM45] | – | 1 (+1 = if > 4 mV) | 1 (+1 = if > 4 mV) | 11.3 mV | 11.3 mV | -0.6272 | – | – | 0.2359 | – | medium | -0.6272 | – | 1 | 1623 kcps | 11.3 mV | 9.913 | -0.6272 | 0.2359 | 1623 kcps | – |
